Measured values reported in patent US6923921B2, “Fluorinated polyether compositions” (3M Innovative Properties Company, priority 2002, dated 2005).

Experiment: Toxicokinetic study with HFPO alcohols: oral absorption and serum elimination (total fluorine in serum)
Design: species or system Male Sprague-Dawley rats
Conditions: rat, in vivo, 30 mg/kg
Method: The objective of this study was to assess the oral absorption and serum elimination half-life of six hexafluoropropylene oxide (HFPO)-alcohol oligomers (CF3CF2CF2O(CF(CF3)CF2O)xCF(CF3)C(O)N(H)CH2CH2OH), or mixtures thereof, in rats. Male Sprague-Dawley rats (N=4 to 6 rats per dose group) received a single 30 mg/kg dose of the various HFPO alcohol oligomers in propylene glycol by oral gavage at a volume of 5 ml/kg. Necropsies were performed on day one and day four post dose.
Serum samples obtained at necropsy were analyzed for total fluorine based on published methods (1) using an Antek 9000F Fluoride Analysis System. The method was based on oxy-pyrohydrolysis at 1050° C., whereby the C—F bond is broken and the resulting product, hydrogen fluoride (HF), is trapped in a buffer solution and measured with the fluoride ion electrode. The total fluorine levels obtained by this method reflect the total organic fluorine in the serum samples and are reported in Table 2.

CF3CF2CF2O(CF(CF3)CF2O)xCF(CF3)C(O)N(H)CH2CH2OH [Example 3]
Amount of Total F ppm (SD) in serum, Day 1 Post-Dose: 0.15 (0.00) ppm | Amount of Total F ppm (SD) in serum, Day 4 Post-Dose: 0.15 (0.00) ppm

CF3CF2CF2O(CF(CF3)CF2O)xCF(CF3)C(O)N(H)CH2CH2OH [Example 2]
Amount of Total F ppm (SD) in serum, Day 1 Post-Dose: 0.15 (0.00) ppm | Amount of Total F ppm (SD) in serum, Day 4 Post-Dose: 0.15 (0.00) ppm

CF3CF2CF2O(CF(CF3)CF2O)xCF(CF3)C(O)N(H)CH2CH2OH [Example C1]
Amount of Total F ppm (SD) in serum, Day 1 Post-Dose: 7.55 (1.34) ppm | Amount of Total F ppm (SD) in serum, Day 4 Post-Dose: 3.90 (0.00) ppm | apparent half-life serum fluorine levels: approximately four
